# According to paper PMC11416981 (Frontiers in Pharmacology, 2024):
# Legend:
# Type in all cases: in vivo, humans
# [1] = Teicoplanin concentration in peritoneal dialysis effluent (PDE) by HPLC
# Procedure: (§1) According to the patient’s PD plan, teicoplanin for injection was evenly distributed into each bag of PD fluid before the patient’s PD procedure to ensure that each bag of dialysis fluid entering the peritoneal cavity contained teicoplanin. […] The number of dialysis times per day is determined by the peritoneal function of each peritoneal dialysis patient.
# (§2) All patients received peritoneal dialysate and serum samples. […] Serum samples were collected on the 4th day prior to drug administration. Blood samples were centrifuged at 3,000 rpm for 10 minutes. The upper serum layer was then transferred into labeled EP tubes and stored at −80°C. Peritoneal fluid samples were collected daily after the PD procedure. The peritoneal fluid bag was disinfected with iodine, and peritoneal effluent was withdrawn using a sterile syringe and stored at −80°C.
# (§3) An Agilent Zorbax SB-C18 column (4.6 × 250 mm, 5 μm) was used. Methyl p-hydroxybenzoate served as the internal standard. The column temperature was kept at 35°C. The mobile phase comprised acetonitrile - 0.01 mol/L potassium dihydrogen phosphate (26:74, v/v, pH = 2.8 adjusted by phosphoric acid). A flow rate of 1 mL/min was set, with an injection volume of 40 μL. UV detection was conducted at 215 nm, while the column temperature remained at 40°C. The pretreatment and chromatographic methods for detecting teicoplanin in serum and PD effluent are the same (Supplement Material).
# Using multiple 1.5 mL centrifuge tubes, 360 μL of bovine serum is added to each tube. Subsequently, 40 μL of the respective standard curve series working solution, 30 μL of the internal standard solution, and 600 μL of acetonitrile are added. The contents are thoroughly mixed by vortexing, centrifuged at 14,000 rpm for 8 minutes, and 100 μL of the supernatant is transferred to sample vials for HPLC analysis.
# Perform linear regression fitting using the weighted (1/X^2) least squares method, resulting in the standard curve regression equation y = 0.0262x-0.0124 (R^2 = 0.9994).
# [2] = system: PDAP patients with gram-positive bacteria cultured from PD effluent; assay: Efficacy of intraperitoneal teicoplanin in PDAP patients (PD effluent analysis, clinical symptoms, infection markers)
# Text: According to the ISPD guidelines recommendation ([Li et al., 2022]), doctors can establish a diagnosis of PDAP. […] Participants should not have taken part in other clinical trials in the past 3 months, understand the trial’s purpose, willingly participate, and sign informed consent forms.
# as §1
# […] This assessment considered primary efficacy endpoints, secondary efficacy endpoints, and primary safety endpoints. The primary efficacy endpoints in this study are: 1) White blood cell count in PD effluent (p-WBC) < 100 × 10^6/L; 2) Percentage of neutrophilic granulocytes in PD effluent (p-NE%) < 50%; 3) Resolution of abdominal pain, absence of fever, and clarity of PD effluent in clinical signs of patients. According to ISPD guidelines, meeting all three criteria or two of the three constitutes a cure, while meeting one is classified as partial relief. The efficacy calculation involves determining the proportion of cured and partially relieved patients among the total.
# (§4) The secondary efficacy endpoints of this study mainly involve infectious markers: C-reactive protein (CRP) and procalcitonin (PCT); Hematological parameters: white blood cell count (b-WBC), blood neutrophilic granulocyte percentage (b-NE%), and hemoglobin (Hb); Renal function markers: serum creatinine (Scr), urea, uric acid (UA), and albumin (ALB).
# However, most patients show significant improvement in clinical symptoms within 1 week.
# [3] = Serum teicoplanin concentration by HPLC; conditions: Uncured group n = 7, serum collected on the 4th day prior to drug administration, intraperitoneal 0.2 g daily, HPLC-UV 215 nm, mean ± SD
# Procedure: as §2, §3
# PDAP patients = assay: Renal function, blood lipid and electrolyte indicators before and after teicoplanin treatment; conditions: post-treatment group n = 36
# Text: as §4
# There were no significant changes in indicators such as Scr after medication compared to before treatment, and there was no significant difference in the patients' renal function (Table S3).
# [4] = Cured group n = 29, intraperitoneal 0.2 g daily, HPLC-UV, mean (Q25, Q75)
# [5] = Cured group n = 29, intraperitoneal 0.2 g daily, HPLC-UV, mean ± SD, SD
# [6] = Uncured group n = 7, intraperitoneal 0.2 g daily, HPLC-UV, mean ± SD, SD
# [7] = Uncured group n = 7, mean (Q25, Q75)
# [8] = Uncured group n = 7, mean ± SD, SD
# [9] = number of 36 PDAP patients, intraperitoneal 0.2 g daily, after 7 days
substance,measurement,setting,value
teicoplanin,PDE teicoplanin concentration on Day 5,"[1]; 24-h urine volume 0–200 mL, n = 17, M50 (M25, M75)","12.85 (8.12, 21.23) mg/L"
same,PDE teicoplanin concentration on Day 5,"[1]; 24-h urine volume 201–537 mL, n = 10, M50 (M25, M75)","10.17 (7.38, 24.59) mg/L"
same,PDE teicoplanin concentration on Day 5,"[1]; 24-h urine volume >537 mL, n = 9, M50 (M25, M75)","23.16 (18.89, 39.45) mg/L"
same,Day 3 PDE teicoplanin concentration,[1]; [4],"14.17 (6.80, 22.93) mg/L"
same,Day 7 PDE teicoplanin concentration,[1]; [4],"20.89 (9.45, 30.23) mg/L"
same,Day 1 PDE teicoplanin concentration,[1]; [5],13.65 ± 3.26 mg/L
same,Day 5 PDE teicoplanin concentration,[1]; [5],18.98 ± 2.43 mg/L
same,Day 7 PDE teicoplanin concentration,"[1]; Uncured group n = 7, intraperitoneal 0.2 g daily, HPLC-UV, mean (Q25, Q75)","11.43 (8.42, 13.21) mg/L"
same,Day 1 PDE teicoplanin concentration,[1]; [6],11.48 ± 3.39 mg/L
same,Day 5 PDE teicoplanin concentration,[1]; [6],12.07 ± 2.68 mg/L
same,day-5 PDE teicoplanin concentration,"[1]; age 49 ~ 61 years old, n = 9, mean ± SD, SD",10.18 ± 1.68 mg/L
same,day-5 PDE teicoplanin concentration,"[1]; age 62 ~ 71 years old, n = 9, mean ± SD, SD",20.19 ± 8.62 mg/L
same,day-5 PDE teicoplanin concentration,"[1]; age > 71 years old, n = 9, mean ± SD, SD",29.46 ± 12.29 mg/L
same,day-5 PDE teicoplanin concentration,"[1]; age ≤ 48 years old, n = 9, mean ± SD, SD",19.46 ± 10.28 mg/L
same,day-5 PDE teicoplanin concentration,"[1]; body weight 54-60 kg, n = 9, mean ± SD, SD",20.19 ± 6.74 mg/L
same,day-5 PDE teicoplanin concentration,"[1]; body weight 61-76.5 kg, n = 8, mean ± SD, SD",15.37 ± 6.39 mg/L
same,day-5 PDE teicoplanin concentration,"[1]; body weight ≤ 53 kg, n = 10, mean ± SD, SD",24.23 ± 7.34 mg/L
same,day-5 PDE teicoplanin concentration,"[1]; body weight ≥ 76.5kg, n = 9, mean ± SD, SD",19.27 ± 7.38 mg/L
same,day-5 PDE teicoplanin concentration,"[1]; both G1.5% and G2.5% low calcium peritoneal dialysate, n = 8, mean ± SD, SD",19.47 ± 9.45 mg/L
same,PDE teicoplanin concentration on Day 5,"[1]; daily PD frequency 1–3 times, n = 5, mean ± SD, SD",38.71 ± 16.36 mg/L
same,PDE teicoplanin concentration on Day 5,"[1]; daily PD frequency 4 times, n = 18, mean ± SD, SD",12.89 ± 7.28 mg/L
same,PDE teicoplanin concentration on Day 5,"[1]; daily PD frequency 5–6 times, n = 13, mean ± SD, SD",17.67 ± 10.23 mg/L
same,day-5 PDE teicoplanin concentration,"[1]; eGFR 4.726 ~ 6.35 mL/min, n = 9, mean ± SD, SD",28.39 ± 11.47 mg/L
same,day-5 PDE teicoplanin concentration,"[1]; eGFR 6.36 ~ 8.524 mL/min, n = 9, mean ± SD, SD",18.26 ± 7.45 mg/L
same,day-5 PDE teicoplanin concentration,"[1]; eGFR ≤ 4.725 mL/min, n = 9, mean ± SD, SD",16.05 ± 5.28 mg/L
same,day-5 PDE teicoplanin concentration,"[1]; eGFR ≥ 8.525 mL/min, n = 9, mean ± SD, SD",21.21 ± 9.21 mg/L
same,day-5 PDE teicoplanin concentration,"[1]; females, n = 14, mean ± SD, SD",18.22 ± 6.29 mg/L
same,day-5 PDE teicoplanin concentration,"[1]; fibrinogen 4.2 to 5.2 g/L, n = 9, mean ± SD, SD",20.72 ± 8.16 mg/L
same,day-5 PDE teicoplanin concentration,"[1]; fibrinogen 5.3 to 6.54 g/L, n = 7, mean ± SD, SD",17.35 ± 6.45 mg/L
same,day-5 PDE teicoplanin concentration,"[1]; fibrinogen ≤ 4.1 g/L, n = 9, mean ± SD, SD",30.56 ± 12.32 mg/L
same,day-5 PDE teicoplanin concentration,"[1]; fibrinogen ≥ 6.55 g/L, n = 11, mean ± SD, SD",14.87 ± 7.07 mg/L
same,day-5 PDE teicoplanin concentration,"[1]; males, n = 22, mean ± SD, SD",19.25 ± 7.89 mg/L
same,day-5 PDE teicoplanin concentration,"[1]; only G1.5% low calcium peritoneal dialysate, n = 10, mean ± SD, SD",19.24 ± 10.23 mg/L
same,day-5 PDE teicoplanin concentration,"[1]; only G2.5% low calcium peritoneal dialysate, n = 18, mean ± SD, SD",24.48 ± 9.23 mg/L
same,CRP after treatment,[2]; [7],"34.00 (5.20, 69.38) mg/L"
same,PCT after treatment,[2]; [7],"0.66 (0.29, 2.87) ng/mL"
same,p-WBC after treatment,[2]; [7],"159.00 (112.5, 1023.5) *10^6/L"
same,b-NE% after treatment,[2]; [8],71.08 ± 25.08%
same,b-WBC after treatment,[2]; [8],6.40 ± 2.28 *10^9/L
same,p-NE% after treatment,[2]; [8],58.86 ± 33.91%
same,Fever,"[2]; cases (%) in post-treatment group n = 36, pre-treatment 8 (22.3%)",1 (2.7%)
same,Diarrhea,"[2]; cases (%) in post-treatment group n = 36, pre-treatment 9 (25%)",1 (2.7%)
same,Peritoneal dialysate turbidity,"[2]; cases (%) in post-treatment group n = 36, pre-treatment 26 (72.2%)",2 (5.6%)
same,Abdominal pain,"[2]; cases (%) in post-treatment group n = 36, pre-treatment 31 (86.1%)",3 (8.3%)
same,overall treatment success rate,"[2]; cured plus partial remission among 36 PDAP patients, intraperitoneal 0.2 g daily, assessed after 7 days",88.9%
same,patients with treatment failure,"[2]; number of 36 PDAP patients (1 died, 3 permanently transitioned to hemodialysis)",4
same,patients cured,[2]; [9],29
same,patients in partial remission,[2]; [9],3
same,p-Lym%,"[2]; post-treatment group n = 36, after 7 days, mean (Q25, Q75), pre-treatment 14.55 (9.85, 29.1)","72.85 (45.95, 86.45) %"
same,p-Lym (lymphocyte count in PD effluent),"[2]; post-treatment group n = 36, after 7 days, mean (Q25, Q75), pre-treatment 196.00 (91.15, 444.62)","14.00 (6.25, 49.75) *10^6/L"
same,p-NE,"[2]; post-treatment group n = 36, after 7 days, mean (Q25, Q75), pre-treatment 1099.60 (418.57, 3333.62)","4.00 (1.00, 18.00) *10^6/L"
same,p-WBC (white blood cell count in PD effluent),"[2]; post-treatment group n = 36, after 7 days, mean (Q25, Q75), pre-treatment 1333.5 (573.50, 4475.00)","28.00 (10.25, 75.00) *10^6/L"
same,PCT,"[2]; secondary indicator, post-treatment group n = 36, after 14 days, mean (Q25, Q75), pre-treatment 0.66 (0.30, 2.99)","0.61 (0.29, 1.15) ng/mL"
same,b-WBC,"[2]; secondary indicator, post-treatment group n = 36, after 14 days, mean (Q25, Q75), pre-treatment 6.40 (5.32, 8.00)","6.20 (5.32, 8.85) *10^9/L"
same,CRP,"[2]; secondary indicator, post-treatment group n = 36, after 14 days, mean (Q25, Q75), pre-treatment 37.50 (10.00, 101.27)","8.30 (3.55, 19.33) mg/L"
same,b-NE%,"[2]; secondary indicator, post-treatment group n = 36, after 14 days, mean (Q25, Q75), pre-treatment 77.60 (67.42, 84.95)","69.10 (59.32, 72.60) %"
same,Serum teicoplanin concentration,[3],10.85 ± 4.92
same,ALB,"PDAP patients; mean ± SD, pre-treatment 28.66 ± 4.99, SD",28.55 ± 5.97 g/L
same,Scr,"PDAP patients; mean ± SD, pre-treatment 772.45 ± 320.15, SD",739.46 ± 312.14 µmol/L
same,HDL,PDAP patients; pre-treatment 0.88 ± 0.38,0.76 ± 0.55 mmol/L
same,TG,"PDAP patients; pre-treatment 1.25 (1.02, 1.74)","1.21 (1.01, 2.27) mmol/L"
same,LDL,PDAP patients; pre-treatment 1.91 ± 0.81,1.49 ± 0.69 mmol/L
same,Ca,"PDAP patients; pre-treatment 2.02 (1.86, 2.18)","2.08 (1.81, 2.26) mmol/L"
same,TC,PDAP patients; pre-treatment 3.49 ± 1.02,2.97 ± 0.85 mmol/L
same,eGFR,"PDAP patients; pre-treatment 6.35 (4.72, 8.52)","7.30 (4.90, 8.50) mL/min/1.73m^2"
same,Urea,"PDAP patients; pre-treatment 16.20 (12.55, 21.46)","16.00 (10.20, 21.30) mmol/L"
same,Na,PDAP patients; pre-treatment 134.75 ± 5.25,136.40 ± 5.49 mmol/L
